# Reference: US11401243B2, “Quinoline derived small molecule inhibitors of nicotinamide N-methyltransferase (NNMT) and uses thereof” (priority 2017, dated 2022)
# “And” between values parts separate entries of the source, which are not always exact repeats. Equal values may be shown once.
# What was measured:
# [1] = biological target: recombinant human NAMPT enzyme (Homo sapiens, UniProt P43490); assay: NAMPT activity assay (fluorometric); format: biochemical
# [2] = biological target: T1, human NNMT (mt-hNNMT) (Homo sapiens, UniProt P40261, E101A/E103A/K100A); assay: NNMT activity assay (HPLC-UV detection of MNA), NNMT IC50 curves; settings: NNMT IC50
# T1 sequence (P40261 1-261 K100A/E101A/E103A limits assumed): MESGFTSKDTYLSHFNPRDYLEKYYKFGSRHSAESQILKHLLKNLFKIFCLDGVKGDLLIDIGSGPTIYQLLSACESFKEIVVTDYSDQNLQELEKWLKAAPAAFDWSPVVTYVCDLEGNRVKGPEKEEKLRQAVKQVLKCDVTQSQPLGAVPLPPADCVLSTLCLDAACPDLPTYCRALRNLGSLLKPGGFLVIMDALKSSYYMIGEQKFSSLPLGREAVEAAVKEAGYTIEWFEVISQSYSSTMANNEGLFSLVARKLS
# [3] = system: differentiating 3T3-L1 cells; assay: Adipocyte differentiation / lipogenesis quantitated with oil red O staining; format: cell-based; settings: for reduction of lipogenesis compared to control untreated adipocytes: oil red O
# Description: On day 9 post-differentiation, cells were subjected to quantitative oil red O (Thermo Fisher Scientific; Waltham, Mass., USA) staining as adapted and modified from published protocols. Briefly, cells were washed twice with PBS, fixed with 10% formalin for 30 min at room temperature, and stained with oil red O working solution (˜0.2% oil red O in 99% isopropanol) for 30 min. Cells were then washed five times or with sterile water until unincorporated oil red O stain was completely removed. Images of oil red O staining in control and inhibitor-treated cells were digitally photographed using a light microscope (Olympus BX41; Tokyo, Japan). After image capture, 2-propanol (3.5 mL) was added to each dish for 10 min to dissolve the oil red O stain and absorbance was quantified in a plate reader set at 492 nm wavelength. To ensure the absorbance from oil red O staining was within the linear detection range of the plate reader, a calibration curve was established for oil red O staining in adipocytes using a previously described protocol.
# recombinant human NAMPT enzyme, sequence (P43490 whole entry): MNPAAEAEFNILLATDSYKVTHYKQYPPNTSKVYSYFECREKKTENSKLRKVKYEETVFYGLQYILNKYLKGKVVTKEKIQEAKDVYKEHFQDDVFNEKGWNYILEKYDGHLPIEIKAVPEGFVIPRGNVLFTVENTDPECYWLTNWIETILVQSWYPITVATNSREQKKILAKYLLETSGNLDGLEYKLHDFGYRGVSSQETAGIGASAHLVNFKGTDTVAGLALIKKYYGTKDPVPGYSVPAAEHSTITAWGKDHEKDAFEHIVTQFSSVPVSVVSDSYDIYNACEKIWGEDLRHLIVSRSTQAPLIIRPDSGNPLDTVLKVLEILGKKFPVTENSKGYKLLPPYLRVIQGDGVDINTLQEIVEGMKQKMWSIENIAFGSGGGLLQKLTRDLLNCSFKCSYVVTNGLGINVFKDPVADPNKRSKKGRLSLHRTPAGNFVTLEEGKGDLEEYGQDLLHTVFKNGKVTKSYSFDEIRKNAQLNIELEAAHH
structure (smiles),measurement,setting,value
"C[n+]1cccc2c(N)cccc21 [1j, 5-amino-1-methylquinolin-1-ium iodide]",IC50,"[1]; concentrations above 100 μM could not be tested (assay interference), read-out: IC50, Nicotinamide phosphoribosyl transferase",> 100000 nM
same,inhibition of NAMPT (in words),[1]; up to 100 μM,did not inhibit
same,IC50,[2],1200 nM and ~1000 nM
same,reduction of lipogenesis compared to control untreated adipocytes,[3]; 30 μM,50%
same,reduction of lipogenesis compared to control untreated adipocytes,[3]; 60 μM,70%
same,lipid accumulation in differentiating pre-adipocytes (in words),"[3]; 15, 30, 60 μM",concentration-dependent inhibition of lipid accumulation
